According to patent publication US4456618A, “Naphthenic and heterocyclic retinoic acid analogues” (SRI International, priority 1982, dated 1984):

Columns and labels:
Ornithine Decarboxylase = experiment: Ornithine decarboxylase (ODC) assay: inhibition of TPA-induced ODC induction in mouse skin; format: in vivo, mouse (female Charles River CD-1); details: topical, 1 hour before TPA (17 nmol)
Procedure: (§1) The ODC assay measures a compound's ability to prevent the induction of ODC. The tracheal organ culture assay measures a compound's ability to reverse keratinization.
The ODC assay is carried out as follows. Female Charles River CD-1 mice from Charles River Breeding Laboratories, Wilmington, Mass., are used (age 7 to 9 weeks). The dorsal hair of the mice is shaved 1 to 2 days before testing, and only mice showing no hair regrowth are used. A single dose of 12-O-tetradecanoylphorbol-13-acetate (TPA) (10.5 μg, 17 nmol) in 0.2 mL of acetone is applied topically to the back of each mouse. The test compound, at one of three dose levels (1.7, 17 and 170 nmol), dissolved in 0.2 mL of acetone is applied 1 hour before the TPA treatment to the test groups; the control group is treated with acetone alone. The mice are killed by cervical dislocation five hours after TPA treatment. Determinations are done in triplicate.
The epidermis is obtained from the sacrificed animals. To obtain sufficient material, the dorsal skins from 2 to 3 mice in each treatment group are pooled. The depilatory agent Nudit® (Helena Rubinstein, New York) is applied to the shaved area of the skin; after 5 minutes, it is washed off thoroughly with cold tap water. Then the skin is excised and plunged immediately into ice-cold water; it is then placed in a 55° C. water bath for 30 seconds and reimmersed in ice-cold water for at lease another 30 seconds. The skin is placed epidermis side up on a cold plate, and the epidermis is scraped off with a razor blade. The pooled epidermal sheets are homogenized (Polytron PT-10 homogenizer) at 0° to 4° C. for 15-20 seconds in 50 mM sodium phosphate and 0.1 mM ethylenediaminetetraacetic acid (EDTA), at a volume of 1 mL/skin.
The supernatant fraction remaining after centrifugation of the homogenate at 10,000×g for 30 seconds at 0° C. is used for the enzyme assay. Enzyme activity is determined using the microassay for ODC as described by Verma and Boutwell to measure the release of ^14 CO2 from DL-[1-^14 C]-ornithine (58 mCi/mmol) after incubation with the 10,000×g supernatant. The incubations are carried out by decanting, with a Pasteur pipette, 100 μL of the supernatant containing 100 to 120 μg of protein into two or three 15-mL Corex tubes in a shaking water bath at 37° C. The assay mixture in the tubes consists of 50 μL of 100 mM sodium phosphate buffer (pH 7.2), 10 μL of 4 mM pyridoxal phosphate, 40 μL of 25 mM dithiothreitol, and 1 μL of 0.1 M EDTA. The center wells in the tubes are filled with 200 μL of a 2:1 solution (v/v) of ethanolamine:2-methoxyethanol. The reaction is started by adding 50 μL of substrate (0.5 μCi of DL-[1-^14 C]-ornithine in 2 mM cold ornithine) at 1-minute intervals by injection to each of the stoppered tubes. Incubations are routinely carried out at 37° C. for 30 to 60 minutes. The reaction is stopped by addition of 0.5 ml of 2 M citric acid, and incubation is continued for an additional hour without heating to ensure complete absorption of ^14 CO2.
Radioactivity is measured using a toluene-based scintillant (4 g of PPO and 50 mg of POPOP/L of toluene) in a Beckman LS-250 liquid scintillation counter. Enzyme activity is determined in triplicate and expressed as nanomoles of CO2 released in 30 minutes per milligram of protein. Enzyme activity is linear for the protein concentration used. The protein concentrations of the epidermal extracts are determined by the Lowry procedure, using bovine serum albumin as the standard.

[1] = test system: Hamster Tracheal Organ Culture; experiment: Reversal of keratinization in hamster tracheal organ culture; format: cell-based
Procedure: as §1
The tracheal organ culture assay is carried out as follows. Tracheas are taken from hamsters that are in very early stages of vitamin A deficiency and placed in organ culture. At the time of culture, the animals are still gaining weight; the tracheal epithelium is generally low columnar or cuboidal, with only occasional patches of squamous metaplasia. Each trachea is opened from the larynx to the carina along the membranous dorsal wall and cultured in a serum-free medium (CMRL-1066; with crystalline bovine insulin, 0.1 μg/ml; hydrocortisone hemisuccinate, 0.1 μg/ml; glutamine, 2 mM; penicillin, 100 units/ml; and streptomycin,100 μg/ml, added). Cultures are gassed with 50% oxygen, 45% nitrogen, and 5% CO2. The culture dishes are rocked at 35.5-36.0 degrees to allow the tracheas contact with both gas and medium. All tracheas are grown in medium containing no retinoid for the first 3 days. At the end of 3 days, some tracheas are harvested; almost all of these tracheas have significant squamous metaplasia, and approximately 60% have keratinized lesions. The remaining tracheas are then divided into different groups which are treated with either: (1) retinoid dissolved in dimethylsulfoxide (final concentration of DMSO in culture medium is never greater than 0.1%) or (2) an equivalent amount of DMSO alone. Culture medium is changed three times a week, and all of the remaining tracheas are harvested at the end of 10 days in culture. Tracheas are fixed in 10% buffered formalin and embedded in paraffin. Cross sections of five micrometers are made through the mid-portion, stained with hematoxylin and eosin, and then scored with a microscope for the presence of keratin and keratohyaline granules, both of which are found in approximately 90% of control cultures that received no retinoid for the entire 10 day culture period.

Structure (SMILES)	Inhibition of Induction of Ornithine Decarboxylase by 12-O-Tetradecanoylphorbol-13-acetate in Mouse Skin, % Inhibition of Control (Ornithine Decarboxylase; Dose 1.7 nmol) [%]	Inhibition of Induction of Ornithine Decarboxylase by 12-O-Tetradecanoylphorbol-13-acetate in Mouse Skin, % Inhibition of Control (Ornithine Decarboxylase; Dose 17 nmol) [%]	Reversal of Keratinization, Active/Total Cultures ([1]; Conc 10^-8 M)	Reversal of Keratinization, Active/Total Cultures (%) ([1]; Conc 10^-8 M)	Reversal of Keratinization, Active/Total Cultures ([1]; Conc 10^-9 M)	Reversal of Keratinization, Active/Total Cultures (%) ([1]; Conc 10^-9 M)	Reversal of Keratinization, Active/Total Cultures ([1]; Conc 10^-10 M)	Reversal of Keratinization, Active/Total Cultures (%) ([1]; Conc 10^-10 M)
CC1=C(/C=C/c2ccc3cc(C=O)ccc3c2)C(C)(C)CCC1 [Example 1, (E)-6-[2-(2,6,6-trimethyl-1-cyclohexen-1-yl)ethenyl]-2-naphthaldehyde]	0	45	15/16	94	7/14	50	4/14	28
CC1=C(/C=C/c2ccc3cc(C(=O)O)ccc3c2)C(C)(C)CCC1 [Example 3, 6-[2-(2,6,6-trimethyl-1-cyclohexen-1-yl)ethenyl]-2-naphthoicacid]	30	48	7/7	100	7/7	100	3/7	43
CCOC(=O)c1ccc(/C=C(C)/C=C/C2=C(C)CCCC2(C)C)o1 [Example 4, (E)-1-(5-Carbethoxy-2-furanyl)-2-methyl-4-(2,6,6-trimethyl-1-cyclohexen-1-yl)-1,3-butadiene]	9	9	2/7	29	2/7	29	2/6	33
CC1=C(/C=C/C(C)=C/c2ccc(C(=O)O)o2)C(C)(C)CCC1 [Example 5, (E)-1-(5-carboxy-2-furanyl)-2-methyl-4-(2,6,6-trimethyl-1-cyclohexen-1-yl)-1,3-butadiene]	7	5	3/6	50	3/7	43	3/7	43
CCOC(=O)c1ccc(/C=C(C)/C=C/C2=C(C)CCCC2(C)C)s1 [Example 6, (E)-1-(5-Carbethoxythien-2-yl)-2-methyl-4-(2,6,6-trimethyl-1-cyclohexen-1-yl)-1,3-butadiene]	67	77	13/13	100	10/14	71	6/14	43
CC1=C(/C=C/C(C)=C/c2ccc(C(=O)O)s2)C(C)(C)CCC1 [Example 8, (E)-1-(5-carboxythien-2-yl)-2-methyl-4-(2,6,6-trimethyl-1-cyclohexen-1-yl)-1,3-butadiene]	42	67	15/15	100	14/15	93	7/15	47
